Assay results from ChEMBL document CHEMBL1201862, “PubChem BioAssay data set” (2004).
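Results reflect a 48-hour exposure of cells in 96-well plates to compound at five concentrations. At the GI50, growth is halved.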 The source made the active and inactive calls. Cut-off read from the data, not from the text of the source: active = GI50 up to about 1.1 µM and inactive = higher.

How the values were obtained:
Assay in all cases: inhibition of tumour cell growth, NCI panel, 48 h
[1] = system: 786-0
[2] = system: A498
[3] = system: A549
[4] = system: ACHN
[5] = system: CAKI-1
[6] = system: CCRF-CEM
[7] = system: COLO 205
[8] = system: DLD-1
[9] = system: DMS-114
[10] = system: DMS-273
[11] = system: EKVX
[12] = system: HCC 2998
[13] = system: HCT-116
[14] = system: HCT-15
[15] = system: HL-60
[16] = system: HOP-18
[17] = system: HOP-62
[18] = system: HOP-92
[19] = system: HT-29
[20] = system: IGROV-1
[21] = system: K562
[22] = system: KM-20L2
[23] = system: KM12
[24] = system: LOX IMVI
[25] = system: LXFL 529
[26] = system: M14
[27] = system: M19-MEL
[28] = system: MOLT-4
[29] = system: Malme-3M
[30] = system: NCI-H226
[31] = system: NCI-H23
[32] = system: NCI-H460
[33] = system: NCI-H522
[34] = system: OVCAR-3
[35] = system: OVCAR-4
[36] = system: OVCAR-5
[37] = system: OVCAR-8
[38] = system: RPMI-8226
[39] = system: RXF 393
[40] = system: SF-268
[41] = system: SF-295
[42] = system: SF-539
[43] = system: SK-MEL-28
[44] = system: SK-MEL-2
[45] = system: SK-MEL-5
[46] = system: SK-OV-3
[47] = system: SN12C
[48] = system: SNB-19
[49] = system: SNB-75
[50] = system: SNB-78
[51] = system: SR
[52] = system: SW-620
[53] = system: TK-10
[54] = system: U-251
[55] = system: UACC-257
[56] = system: UACC-62
[57] = system: UO-31
[58] = system: XF498
[59] = system: RXF 631

COC(=N)/C(=C1\OC(=N)C(c2ccc(Cl)cc2)=C1O)c1ccc(Cl)cc1
GI50 [1]: > 100 µM (inactive)
GI50 [2]: > 100 µM (inactive)
GI50 [3]: > 100 µM (inactive)
GI50 [4]: > 100 µM (inactive)
GI50 [5]: > 100 µM (inactive)
GI50 [6]: 70.5 µM (inactive)
GI50 [7]: > 100 µM (inactive)
GI50 [8]: > 100 µM (inactive)
GI50 [9]: > 100 µM (inactive)
GI50 [10]: > 100 µM (inactive)
GI50 [11]: > 100 µM (inactive)
GI50 [12]: > 100 µM (inactive)
GI50 [13]: > 100 µM (inactive)
GI50 [14]: > 100 µM
GI50 [15]: 81.7 µM (inactive)
GI50 [16]: > 100 µM (inactive)
GI50 [17]: > 100 µM (inactive)
GI50 [18]: > 100 µM (inactive)
GI50 [19]: > 100 µM (inactive)
GI50 [20]: > 100 µM (inactive)
GI50 [21]: > 100 µM (inactive)
GI50 [22]: > 100 µM (inactive)
GI50 [23]: > 100 µM (inactive)
GI50 [24]: > 100 µM (inactive)
GI50 [25]: 74.3 µM (inactive)
GI50 [26]: > 100 µM (inactive)
GI50 [27]: > 100 µM (inactive)
GI50 [28]: > 100 µM (inactive)
GI50 [29]: > 100 µM (inactive)
GI50 [30]: > 100 µM (inactive)
GI50 [31]: > 100 µM (inactive)
GI50 [32]: > 100 µM (inactive)
GI50 [33]: > 100 µM (inactive)
GI50 [34]: > 100 µM (inactive)
GI50 [35]: > 100 µM (inactive)
GI50 [36]: > 100 µM (inactive)
GI50 [37]: > 100 µM (inactive)
GI50 [38]: 81.8 µM (inactive)
GI50 [39]: > 100 µM (inactive)
GI50 [40]: > 100 µM (inactive)
GI50 [41]: > 100 µM (inactive)
GI50 [42]: > 100 µM (inactive)
GI50 [43]: > 100 µM (inactive)
GI50 [44]: > 100 µM (inactive)
GI50 [45]: > 100 µM (inactive)
GI50 [46]: > 100 µM (inactive)
GI50 [47]: > 100 µM (inactive)
GI50 [48]: > 100 µM (inactive)
GI50 [49]: > 100 µM (inactive)
GI50 [50]: > 100 µM (inactive)
GI50 [51]: > 100 µM (inactive)
GI50 [52]: > 100 µM (inactive)
GI50 [53]: > 100 µM (inactive)
GI50 [54]: > 100 µM (inactive)
GI50 [55]: > 100 µM (inactive)
GI50 [56]: > 100 µM (inactive)
GI50 [57]: > 100 µM (inactive)
GI50 [58]: > 100 µM (inactive)

CCCCCCCCCCCCCCCCOC(=O)C(C(=O)OCCCCCCCCCCCCCCCC)[N+](C)(C)CCOC(C)=O
GI50 [1]: 14.3 µM (inactive)
GI50 [2]: 23.6 µM (inactive)
GI50 [3]: 20.5 µM (inactive)
GI50 [4]: 19.2 µM (inactive)
GI50 [5]: 12.6 µM (inactive)
GI50 [6]: 10.3 µM (inactive)
GI50 [7]: 15.8 µM (inactive)
GI50 [8]: 14.2 µM (inactive)
GI50 [9]: 17.9 µM (inactive)
GI50 [10]: 9.2 µM (inactive)
GI50 [11]: 21 µM (inactive)
GI50 [12]: 11.4 µM (inactive)
GI50 [13]: 16.4 µM (inactive)
GI50 [14]: 22.1 µM
GI50 [15]: 2.11 µM (inactive)
GI50 [16]: 16.7 µM (inactive)
GI50 [17]: 10.9 µM (inactive)
GI50 [18]: 2.85 µM (inactive)
GI50 [19]: 11.1 µM (inactive)
GI50 [20]: 3.92 µM (inactive)
GI50 [21]: 19.5 µM (inactive)
GI50 [22]: 18.6 µM (inactive)
GI50 [23]: 13.7 µM (inactive)
GI50 [24]: 21.8 µM (inactive)
GI50 [25]: 16.1 µM (inactive)
GI50 [26]: 19.7 µM (inactive)
GI50 [27]: 13.9 µM (inactive)
GI50 [29]: 21.2 µM (inactive)
GI50 [30]: 18.7 µM (inactive)
GI50 [31]: 14.6 µM (inactive)
GI50 [32]: 28.1 µM (inactive)
GI50 [33]: 5.16 µM (inactive)
GI50 [34]: 16.7 µM (inactive)
GI50 [35]: 15.9 µM (inactive)
GI50 [36]: 20.8 µM (inactive)
GI50 [37]: 17.7 µM (inactive)
GI50 [39]: 2.99 µM (inactive)
GI50 [59]: 12.5 µM (inactive)
GI50 [40]: 17.9 µM (inactive)
GI50 [41]: 18.1 µM (inactive)
GI50 [43]: 24 µM (inactive)
GI50 [44]: 20.1 µM (inactive)
GI50 [45]: 19.7 µM (inactive)
GI50 [46]: 17.8 µM (inactive)
GI50 [47]: 18.4 µM (inactive)
GI50 [48]: 13.4 µM (inactive)
GI50 [49]: 12.9 µM (inactive)
GI50 [50]: 19.9 µM (inactive)
GI50 [52]: 20.6 µM (inactive)
GI50 [53]: 13 µM (inactive)
GI50 [54]: 12 µM (inactive)
GI50 [55]: 19.1 µM (inactive)
GI50 [56]: 21.5 µM (inactive)
GI50 [57]: 19.7 µM (inactive)
